Patent US4381304A, “4,9-Dihydro-4,9-dioxo-1H-cyclohepta[b]pyridine derivatives” (Ayerst, McKenna & Harrison, Inc., priority 1981, dated 1983)
Where two headings read alike, the source gives them in different places.

Tests used:
[1] = stability of the salt in the presence of acid; type: physicochemical
Protocol: A mixture of 3-{[N-(methoxycarbonylmethyl)-N-methylamino]carbonyl}-4,9-dihydro-4,9-dioxo-1H-cyclohepta[b]pyridine-1-acetic acid ethyl ester (2.36 g, described in example 6) and 2% aqueous sodium hydroxide (w/v, 25 ml) was stirred at 25° C. for 4 hr. Evaporation of the reaction mixture gave the title disodium salt. […] The salt had mp>250° C.; nmr (D2 O) δ3.0 (d, 3H), 4.0 (d, 2H), 4.7 (s, 2H), 6.8-8.3 (m, 5H); ir (Nujol*) 3400, 3150, 1610 cm^-1 (with inflections at 1625 and 1585 cm^-1); uv λ max (MeOH) 340 nm (ε7,390), 237 (13,000); Anal Calcd for C16 H12 N2 O7 Na2.3H2 O: C, 43.24% H, 4.08% […]; Found: C, 42.76% H, 3.57%, N, 7.18%.

[2] = test system: diabetic complications such as diabetic cataracts, neuropathy, nephropathy and retinopathy; conditions: literature report (U.S. Pat. No. 3,821,383); cited from earlier work
[3] = test system: aldose reductase; conditions: literature report; cited from earlier work
[4] = biological target: T1, aldose reductase (Bos taurus, UniProt P16116); experiment: in vitro aldose reductase inhibition (modified Hayman and Kinoshita procedure); type: biochemical, bovine (lens); conditions: for inhibition at 10 µM: read-out: % Inhibition at Different Molar Concentrations (in vitro), 10^-5; for inhibition at 1 µM: 10^-6 molar, read-out: % Inhibition at Different Molar Concentrations (in vitro), 10^-6; for inhibition at 0.1 µM: 10^-7 molar, read-out: % Inhibition at Different Molar Concentrations (in vitro), 10^-7
T1 construct: preparation of the enzyme from bovine lens; from tissue; host or cells: bovine lens
Excerpt: In the present case the procedure of Hayman and Kinoshita is modified in that the final chromatography step is omitted in the preparation of the enzyme from bovine lens.

[5] = 10^-5 molar, enzyme from bovine lens

## CN(CC(=O)[O-])C(=O)c1cn(CC(=O)[O-])c2c(=O)ccccc2c1=O.[Na+].[Na+]
[1]
  stability in the presence of acid: decomposed in the presence of acid

## O=C(O)CN1C(=O)c2cccc3cccc(c23)C1=O [1,3-Dioxo-1H-benz[de]isoquinoline-2(3H)-acetic acid]
[2]
  usefulness for the treatment of diabetic complications (in words): useful for the treatment of diabetic complications such as diabetic cataracts, neuropathy, nephropathy and retinopathy
[3]
  aldose reductase inhibition (in words): effective inhibitor of aldose reductase

## CN(CC(=O)[O-])C(=O)c1cn(CC(=O)[O-])c2c(=O)ccccc2c1=O.[Na+].[Na+] [Disodium Salt]
[4]
  inhibition at 10 µM: 22%

## O=C(O)Cn1cc(C(=O)O)c(=O)c2cc(O)ccc(=O)c21 [Example 4 (R^1 COOH, R^2 6-OH), 3-carboxy-4,9-dihydro-6-hydroxy-4,9-dioxo-1H-cyclohepta[b]pyridine-1-acetic acid]
[4]; [5]
  inhibition at 10 µM: 84%
[4]; enzyme from bovine lens
  inhibition at 1 µM: 53%
  inhibition at 0.1 µM: 16%

## O=C(O)Cn1cc(C(=O)O)c(=O)c2cccc(Br)c(=O)c21 [Example 4 (R^1 COOH, R^2 8-Br), 8-bromo-3-carboxy-4,9-dihydro-4,9-dioxo-1H-cyclohepta[b]pyridine-1-acetic acid]
[4]; [5]
  inhibition at 10 µM: 81%
[4]; enzyme from bovine lens
  inhibition at 1 µM: 47%
  inhibition at 0.1 µM: 14%

## O=C(O)Cn1cc(C(=O)O)c(=O)c2ccccc(=O)c21 [Example 4 (R^1 COOH, R^2 H), 3-Carboxy-4,9-dihydro-4,9-dioxo-1H-cyclohepta[b]pyridine-1-acetic Acid]
[4]; [5]
  inhibition at 10 µM: 89%
[4]; enzyme from bovine lens
  inhibition at 1 µM: 65%
  inhibition at 0.1 µM: 19%

## O=C1NC(=O)[C@@]2(CCOc3ccc(F)cc32)N1 [sorbinil, (S)-6-Fluoro-2,3-dihydrospiro(4H-1-benzopyran-4,4'-imidazolidine)-2',5'-dione]
[3]
  aldose reductase inhibition (in words): aldose reductase inhibiting properties
